Assay results as given in patent publication US20240139280A1, “USE OF HIF-1-ALPHA INHIBITORS IN CANCER IMMUNOTHERAPY” (ONCOC4, INC., priority 2021, published 2024).

Experiments:
[1] = Tolerability and LD50 of intravenous echinomycin in mice; details: mouse, in vivo
[2] = tested on: PD-L1 expression in 4T1 cells; experiment: PD-L1 expression in 4T1 cells by flow cytometry; type: cell-based, murine; details: normoxia, echinomycin 0.45 nM, 48 hours
[3] = tested on: PD-L1 expression in E0771 cells; type: cell-based, murine
[4] = tested on: PD-L1 in 4T1, E0771, MC38 tumors; experiment: Intratumoral PD-L1 immunofluorescence in engrafted 4T1, E0771 and MC38 tumors; type: in vivo, mice; details: LEM 0.25 mg/kg every other day for 5 doses; two days after final dose
[5] = tested on: irAE target organs (liver, kidney), spleen; experiment: PD-L1 expression and T cell infiltration in normal tissues (liver, kidney, spleen) of E0771 tumor-bearing mice; type: in vivo, C57BL/6 mice
Protocol: E0771 cells (0.5×10^6) were orthotopically transplanted into C57BL/6 mice (day 0), which were divided into 6 treatment groups: vehicle, echinomycin (LEM), anti-CTLA-4 (9D9), 9D9+echinomycin, 9D9+echinomycin+XMG1.2 (an anti-IFNγ antibody), or 9D9+RMP1-14. Echinomycin (0.25 mg/kg) or mAbs (0.2 mg/mouse/injection) were given on days 6, 8, 10, and 12. On day 14, the mice were euthanized, perfused, and the spleens were dissociated and analyzed by flow cytometry, or stimulated for 4 hours with PMA+ionomycin+GolgiStop prior to intracellular staining for IFNγ. The liver and kidney were processed for immunofluorescence analysis for PD-L1. FIG. 7A. PD-L1 expression in the tumor-bearing mice treated with different therapies. Representative immunofluorescence images shown for kidney (upper) and liver tissues (lower) of mice from indicated treatment groups stained by anti-PD-L1 and DAPI. FIGS. 7B-D. T cell infiltration in the liver and kidney of tumor-bearing mice. Representative immunofluorescence images from mice in the indicated treatment groups after staining with anti-CD3 and DAPI are shown in FIG. 7B for kidney (upper panel) and liver tissues (lower panel). T cell infiltration scores in the kidney (FIG. 7C) and liver (FIG. 7D) are shown as mean±SEM infiltration scores for the kidney (FIG. 7C) and liver tissues (FIG. 7D). T cell infiltration scoring range: 0, normal/none; 1, minimal; 2, mild; 3, moderate; 4, severe. FIG. 7E. Frequency of splenic Tc1 cells among CD8^+ T cells (gated on Singlets/Live_CD45^+/CD3^+/CD8^+CD4^−), expressed as the mean±SEM. FIG. 7F. Frequencies of splenic Th1 cells among CD4^+ T cells (gated on Singlets/Live_CD45^+/CD3^+/CD8^−CD4^+), expressed as the mean±SEM. FIG. 7G. Frequency of splenic T cells (gated on Singlets/Live_CD45^+/CD3^+/CD8^+CD4^−) among total hematopoietic cells (gated on Singlets/Live_CD45^+). Representative data are shown for one of at least two independent experiments. FIG. 7H. CD3 and cleaved-caspase 3 staining in kidney and liver. Representative immunofluorescence images shown for kidney (upper) and liver tissues (lower) of mice that received 9D9 or 9D9+LEM. Caspase 3 positive cells are indicated with arrows. All data is representative of at least two independent experiments. In FIGS. 7C-G, data are presented as the mean±SEM with each dot representing an individual mouse, analyzed by one-way ANOVA with Sidak's posttest.

leukemia stem cells = details: Wang et al., 2011; cited from earlier work

SMILES: CSC1SC[C@H]2C(=O)N(C)[C@@H](C(C)C)C(=O)OC[C@@H](NC(=O)c3cnc4ccccc4n3)C(=O)N[C@@H](C)C(=O)N(C)[C@@H]1C(=O)N(C)[C@@H](C(C)C)C(=O)OC[C@@H](NC(=O)c1cnc3ccccc3n1)C(=O)N[C@@H](C)C(=O)N2C (stereo in doubt) [echinomycin, N,N′-(2,4,12,15,17,25-hexamethyl-11,24-bis(1-methylethyl)-27-(methylthio)-3,6,10,13,16,19,23,26-octaoxo-9,22-dioxa-28-thia-2,5,12,15,18,25-hexaazabicyclo(12.12.3)nonacosane-7,20-diyl)bis(2-quinoxalinecarboxamide)]
- LD50 [1]: 0.629 mg/kg
- PD-L1 protein [2]: reduced PD-L1 protein
- PD-L1 expression in sh-Hif1α E0771 cells [3]: abrogated the ability for echinomycin to decrease PD-L1 protein
- PD-L1 protein ([3]; E0771 cells, normoxia, echinomycin 0.45 nM, 48 hours): reduced PD-L1 protein
- PD-L1 expression in sh-Scr E0771 cells ([3]; scrambled shRNA, echinomycin 1.35 nM): inhibitory effect of echinomycin on PD-L1 expression was preserved
- intratumoral PD-L1 expression (immunofluorescence) [4]: marked reduction in PD-L1 expression
- T cell infiltration in liver and kidney ([5]; E0771 tumor-bearing C57BL/6, anti-CD3 immunofluorescence): did not stimulate increased infiltration
- PD-L1 expression in liver and kidney (immunofluorescence) ([5]; E0771 tumor-bearing C57BL/6, echinomycin 0.25 mg/kg, mAbs 0.2 mg/mouse/injection): also induced PD-L1
- PD-L1 expression in normal tissues including liver, kidney, salivary gland and colon ([5]; immunocompetent mice): induced PD-L1 expression
- PD-L1 induction in the liver in mice with conditional knockout of Hif1α in T cells ([5]; mouse, in vivo): preserved regardless of the mouse genotype
- elimination of leukemia stem cells (leukemia stem cells): effectively eliminated leukemia stem cells
